Results reported in paper PMC6391970, “Design, Synthesis and Characterization of Covalent KDM5 Inhibitors” (Angewandte Chemie (International Ed. in English), 2018).

Molecular target: T1, KDM4B (Homo sapiens, UniProt O94953)
T1 sequence (O94953 1-1096): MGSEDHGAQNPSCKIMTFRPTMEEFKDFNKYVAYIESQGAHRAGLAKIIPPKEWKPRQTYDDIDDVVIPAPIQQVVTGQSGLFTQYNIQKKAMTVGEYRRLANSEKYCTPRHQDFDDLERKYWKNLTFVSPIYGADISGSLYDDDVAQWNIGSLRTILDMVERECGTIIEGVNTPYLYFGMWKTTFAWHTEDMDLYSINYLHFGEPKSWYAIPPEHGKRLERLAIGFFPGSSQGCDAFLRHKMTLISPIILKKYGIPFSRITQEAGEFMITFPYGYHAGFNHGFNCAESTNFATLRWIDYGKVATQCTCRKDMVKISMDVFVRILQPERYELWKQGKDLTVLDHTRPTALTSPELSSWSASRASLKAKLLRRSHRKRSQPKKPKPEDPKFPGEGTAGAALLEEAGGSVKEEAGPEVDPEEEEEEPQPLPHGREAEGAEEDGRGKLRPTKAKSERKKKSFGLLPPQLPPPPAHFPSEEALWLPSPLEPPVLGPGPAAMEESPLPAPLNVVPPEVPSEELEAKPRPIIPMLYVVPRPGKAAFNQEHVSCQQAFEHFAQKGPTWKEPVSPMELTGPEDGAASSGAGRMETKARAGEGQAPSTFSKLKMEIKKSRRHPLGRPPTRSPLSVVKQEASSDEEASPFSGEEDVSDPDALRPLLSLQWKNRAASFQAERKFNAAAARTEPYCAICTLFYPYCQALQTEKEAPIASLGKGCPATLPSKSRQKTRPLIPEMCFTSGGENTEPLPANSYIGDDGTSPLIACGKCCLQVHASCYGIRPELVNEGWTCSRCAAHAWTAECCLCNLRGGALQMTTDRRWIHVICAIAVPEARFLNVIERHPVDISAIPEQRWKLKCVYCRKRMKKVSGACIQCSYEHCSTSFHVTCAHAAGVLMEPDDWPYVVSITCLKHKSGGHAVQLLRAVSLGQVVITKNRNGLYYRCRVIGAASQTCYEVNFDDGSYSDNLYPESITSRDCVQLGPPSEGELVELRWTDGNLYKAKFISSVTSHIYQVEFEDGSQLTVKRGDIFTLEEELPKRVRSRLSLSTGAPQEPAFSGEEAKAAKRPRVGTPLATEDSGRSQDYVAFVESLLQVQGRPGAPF
Assay: Covalent binding by MS, KDM4B
Conditions: same conditions as with KDM5B
Protocol: Covalent binding of the inhibitors with KDM5B was confirmed through MS‐labelling experiments (Figure 3). […] The specific covalent binding to KDM5B explains the improved selectivity over KDM5C and KDM4B compared to non‐covalent inhibitor 2.
Covalent binding RapidFire
Recombinant KDM5B (MW = 55152 Da) was incubated at 1 μM with the appropriate compound at 10 μM for 2 hours at 37 °C in 50 mM MES buffer at pH 7.0. Samples were injected in RapidFire 365 and MS was detected in QTOF mass spectrometer. Data were acquire and analysed with Agilent Mass Hunter software.
Recombinant KDM5B was incubated at 1 μM with the appropriate compound at 10 μM for 2 hours at 37 °C in 200 µL of 50 mM MES buffer at pH 7.0. […]
Digestion with elastase (1 µL) overnight at 37 °C followed by purification with SEP-PAK C18 columns and resuspension of the final sample in 98% MilliQ-H20 2% CH3CN 0.1% TFA gave the final sample ready to inject. […]
NanoBRET™ Nano-Glo® substrate (Promega UK) and Extracellular NanoLuc Inhibitor (Promega UK) were added at final concentrations of 10 and 20 µM, respectively. Readings were performed within 5 minutes using a PHERAstar FSX (BMG Labtech) with 450 and 610 nm filters. Corrected BRET ratios were calculated and is defined as the ratio if the emission at 610/450 nm for experimental samples (i.e. those treated with tracer) minus the emission at 610/450 nm for control samples (DMSO controls). […]

- covalent binding to KDM4B by MS: no covalent binding
Compound: CN(C)C/C=C/C(=O)Nc1cccc(CN(C)CCc2cnn(-c3nccc4c(=O)[nH]cnc34)c2)c1 [Compound 6]
